Measurements taken from patent publication US6737383B1, “Herbicidal oxadiazolidines” (priority 1999, dated 2004).

How the values were obtained:
field bindweed = assay: Test C postemergence field bindweed; type: in vivo, Convolvulus arvensis; conditions: 0 to 100 scale, 0 no effect, 100 complete control
Method in brief: (§1)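 Visual ratings on a 0 to 100 scale, where 0 means no effect and 100 complete control, were made versus untreated controls roughly 14 to 21 days after postemergence treatment. Test compounds were formulated in a non-phytotoxic solvent mixture containing a surfactant.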

downy brome = assay: Test E downy brome; type: in vivo, Bromus tectorum; conditions: Postemergence; for Plant response rating, Downy brome: 0 to 100 scale
Method in brief: (§2)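 Greenhouse test: compounds in non-phytotoxic solvent with surfactant; for postemergence, sprayed on plants at 1- to 4-leaf stage grown in 60:40 sandy loam/potting mix. Injury rated visually against untreated controls after about 21 to 28 days.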

soybean = assay: Test C postemergence soybean; type: in vivo, Glycine max; conditions: 0 to 100 scale, 0 no effect, 100 complete control
Method in brief: as §1

windgrass = assay: Test E windgrass; type: in vivo, Apera spica-venti; conditions: Preemergence
common poppy = assay: Test E common poppy; type: in vivo, Papaver rhoeas; conditions: Postemergence
Method in brief: as §2

field violet = assay: Test E field violet; type: in vivo, Viola arvensis; conditions: Postemergence
Method in brief: as §2

spring wheat = assay: Test E spring wheat; type: in vivo, Triticum aestivum; conditions: Postemergence
Method in brief: as §2

green foxtail = assay: Test E green foxtail; type: in vivo, Setaria viridis; conditions: Postemergence
Method in brief: as §2

sugar beet = assay: Test E sugar beet; type: in vivo, Beta vulgaris; conditions: Preemergence
corn = assay: Test C postemergence corn; type: in vivo, Zea mays; conditions: 0 to 100 scale, 0 no effect, 100 complete control
Method in brief: as §1

sunflower = assay: Test E sunflower; type: in vivo, Helianthus annuus; conditions: Postemergence
Method in brief: as §2

redroot pigweed = assay: Test E redroot pigweed; type: in vivo, Amaranthus retroflexus; conditions: Postemergence
Method in brief: as §2

littleseed canarygrass = assay: Test E littleseed canarygrass; type: in vivo, Phalaris minor; conditions: Preemergence
large crabgrass = assay: Test C postemergence large crabgrass; type: in vivo, Digitaria sanguinalis; conditions: 0 to 100 scale, 0 no effect, 100 complete control
Method in brief: as §1

lambsquarters = assay: Test E lambsquarters; type: in vivo, Chenopodium album; conditions: Postemergence
Method in brief: as §2

chickweed = assay: Test E chickweed; type: in vivo, Stellaria media; conditions: Preemergence
[1] = Rate 250 g/ha, 0 to 100 scale (0 no effect, 100 complete control)
[2] = Rate 125 g/ha, 0 to 100 scale (0 no effect, 100 complete control)
[3] = Rate 500 g/ha, 0 to 100 scale where 0 is no effect and 100 is complete control
[4] = Rate 500 g/ha, 0 to 100 scale, 0 no effect, 100 complete control

For `CCn1c(=O)on(C(=O)N(c2ccc(F)cc2F)C(C)C)c1=O` [Compound 116], the “Plant response rating Field bindweed” value (field bindweed; Rate 140 g/ha) was 0, the “Plant response rating Field bindweed” value (field bindweed; Rate 280 g/ha) was 0 and the “Plant response rating Field bindweed” value (field bindweed; Rate 560 g/ha) was 50. The “Plant response rating Field bindweed” value (field bindweed; Rate 1120 g/ha) was 50, the “Plant response rating, Downy brome” value (downy brome; Rate 62 g/ha) was 0 and the “Plant response rating, Downy brome” value (downy brome; Rate 125 g/ha) was 0. For the same molecule, the “Plant response rating, Downy brortie” value (downy brome; [1]) was 30, the “Plant response rating, Downy brome” value (downy brome; Rate 500 g/ha, 0 no effect, 100 complete control) was 60 and the “Plant response rating, Soybean” value (soybean; Rate 140 g/ha) was 10. For the same molecule, the “Plant response rating, Soybean” value (soybean; Rate 280 g/ha) was 10, the “Plant response rating, Soybean” value (soybean; Rate 560 g/ha) was 30 and the “Plant response rating, Soybean” value (soybean; Rate 1120 g/ha) was 40. The “Plant response rating, Windgrass” value (windgrass; [2]) was 100, the “Plant response rating, Windgrass” value (windgrass; [3]) was 100 and the “Plant response rating, Common poppy” value (common poppy; Rate 62 g/ha, 0 to 100 scale) was 30. For the same molecule, the “Plant response rating, Comnion poppy” value (common poppy; Rate 125 g/ha, 0 to 100 scale) was 0, the “Plant response rating, Common poppy” value (common poppy; [1]) was 0 and the “Plant response rating, Common poppy” value (common poppy; [4]) was 10. The “Plant response rating, Field violet” value (field violet; Rate 62 g/ha, 0 to 100 scale) was 60, the “Plant response rating, Field violet” value (field violet; Rate 125 g/ha, 0 to 100 scale) was 0 and the “Plant response rating, Field violet” value (field violet; [1]) was 0. The “Plant response rating, Field violet” value (field violet; [4]) was 0, the “Plant response rating, Spring Wheat” value (spring wheat; Rate 62 g/ha, 0 to 100 scale) was 5 and the “Plant response rating, Spring Wheat” value (spring wheat; Rate 125 g/ha, 0 to 100 scale) was 0. For the same molecule, the “Plant response rating, Spring Wheat” value (spring wheat; [1]) was 10, the “Plant response rating, Spring Wheat” value (spring wheat; [4]) was 10 and the “Plant response rating, Green foxtail” value (green foxtail; Rate 62 g/ha, 0 to 100 scale) was 20. For the same molecule, the “Plant response rating, Green foxtail” value (green foxtail; Rate 125 g/ha, 0 to 100 scale) was 70, the “Plant response rating, Green foxtail” value (green foxtail; [1]) was 75 and the “Plant response rating, Green foxtail” value (green foxtail; [4]) was 75. For the same molecule, the “Plant response rating, Sugar beet” value (sugar beet; [2]) was 50, the “Plant response rating, Sugar beet” value (sugar beet; Rate 250 g/ha, 0 to 100 scale) was 85 and the “Plant response rating, Sugar beet” value (sugar beet; [3]) was 95. The “Plant response rating, Corn” value (corn; Rate 140 g/ha) was 0, the “Plant response rating, Corn” value (corn; Rate 280 g/ha) was 0 and the “Plant response rating, Corn” value (corn; Rate 560 g/ha) was 15. For the same molecule, the “Plant response rating, Corn” value (corn; Rate 1120 g/ha) was 20, the “Plant response rating, Sunflower” value (sunflower; Rate 62 g/ha, 0 to 100 scale) was 20 and the “Plant response rating, Sunflower” value (sunflower; Rate 125 g/ha, 0 to 100 scale) was 0. The “Plant response rating, Sunflower” value (sunflower; [1]) was 0, the “Plant response rating, Sunflower” value (sunflower; [4]) was 0 and the “Plant response rating, Redroot pigweed” value (redroot pigweed; Rate 62 g/ha, 0 to 100 scale) was 0. The “Plant response rating, Redroot pigweed” value (redroot pigweed; Rate 125 g/ha, 0 to 100 scale) was 0, the “Plant response rating, Redroot pigweed” value (redroot pigweed; [1]) was 0 and the “Plant response rating, Redroot pigweed” value (redroot pigweed; [4]) was 0. For the same molecule, the “Plant response rating, LS canarygrass” value (littleseed canarygrass; [2]) was 70, the “Plant response rating, LS canarygrass” value (littleseed canarygrass; Rate 250 g/ha, 0 to 100 scale) was 80 and the “Plant response rating, LS canarygrass” value (littleseed canarygrass; [3]) was 100. For the same molecule, the “Plant response rating Large crabgrass” value (large crabgrass; Rate 140 g/ha) was 0, the “Plant response rating Large crabgrass” value (large crabgrass; Rate 280 g/ha) was 0 and the “Plant response rating Large crabgrass” value (large crabgrass; Rate 560 g/ha) was 30. For the same molecule, the “Plant response rating Large crabgrass” value (large crabgrass; Rate 1120 g/ha) was 90, the “Plant response rating, Lambsquarters” value (lambsquarters; Rate 62 g/ha, 0 to 100 scale) was 20 and the “Plant response rating, Lambsquarters” value (lambsquarters; Rate 125 g/ha, 0 to 100 scale) was 30. For the same molecule, the “Plant response rating, Lambsquarters” value (lambsquarters; [1]) was 0, the “Plant response rating, Lambsquarters” value (lambsquarters; [4]) was 0 and the “Plant response rating, Chickweed” value (chickweed; [2]) was 100. The “Plant response rating, Chickweed” value (chickweed; Rate 250 g/ha, 0 to 100 scale) was 100 and the “Plant response rating, Chickweed” value (chickweed; [3]) was 100.
